# Data published in patent US20130280204A1 (priority 2007, published 2013).
# Tested on: Wuhan E119V
# Type: cell-based, influenza A virus H3N2
# Settings: read-out: IC50 (nM zanamivir) A/Wuhan/359/95 (second line)
substance,measurement,value
"3-Acetamido-2-(1-(((4-(aminomethyl)phenyl)carbamoyl)oxy)-2,3-dihydroxypropyl)-4-guanidino-3,4-dihydro-2H-pyran-6-carboxylic acid [compound 4]",IC50,51 ± 5 nM
